The values below come from patent US8957012B2, “Gamma secretase inhibitor for treatment of herpesvirus infection” (The Trustees of the University of Pennsylvania, priority 2006, dated 2015).

Experiment [1] relates to KSHV-GFP Bac36 recombinant virus in Vero cells. The experiment is classed as cell-based.
The subject of experiment [2] is KSHV in BCBL1 cells. The experiment is classed as cell-based.
Experiment [3] has as its system KSHV-infected primary B cells. The experiment can be described thus: 7AAD staining FACS analysis of cell death. The experiment is classed as cell-based. Conditions: 4-week KSHV Bac36-infected primary B cells; treated 5 days; mock-treated 21.2%. Background: Flow cytometry measures light scatter and fluorescence of single cells or particles in a stream.
The test system of experiment [4] is BCBL1 cells. As to the kind of experiment: Cell cycle distribution, propidium iodide FACS. The experiment is classed as cell-based. The note with it: 48 h post treatment. As to the method:
(§1) At 48 h post treatment, cells were harvested, fixed, and stained with propidium iodide. M2, M3, and M4 represent the G1, S, and G2/M populations of cells, respectively. M1 and M5 represent hypo- and hypernucleated cells, respectively. The percentage of cells in each different phase is indicated. Western blot analysis indicates the ICN levels in γ-secretase inhibitor-treated DG75 cells or BCBL1 cells. The relative density (RD) of ICN in each sample is also shown.
(§2) As was shown in the above Examples; a γ-secretase inhibitor can dramatically slow down proliferation of the KSHV-positive BCBL1 cell line.

In experiment [5] the test system is DG75 cells. The experiment can be described thus: Cell cycle distribution, propidium iodide FACS. The experiment is classed as cell-based. The note with it: 48 h post treatment. Here is the method: as §1, §2
Experiment [6] concerns Notch1 ICN in BCBL1 cells. The experiment can be described thus: Western blot of ICN levels. The experiment is classed as cell-based. Conditions: BCBL1 cells treated with inhibitor. As to the method:
as §1, §2
A general note: Immunoblotting shows a protein as a band on a membrane.

For experiment [7], the system named is BCBL1 cells. As to the kind of experiment: SCID mouse model of KSHV infected B lymphoma. Conditions: listed as GSI.
In experiment [8] the test system is BCBL1 cells. As to the kind of experiment: CFSE staining of mitotic activity by FACS. The experiment is classed as cell-based. Conditions: 20 μM, 48 h, vs untreated cells. Here is the method: (§3) Each cell type (100,000 cells) was cultured in RPMI 1640 with 5% BGS. At each time point, cells were stained with trypan blue and counted. The results represent three independent experiments. (B) CFSE staining showing mitosis of DG75 (left panel) and BCBL1 (right panel) cells. Five million cells were cultured in RPMI 1640 with 5% BGS and mock treated (red curves) or treated with γ-secretase inhibitor at 20 μM (blue curves). At 48 h post treatment, cells were harvested for FACS analysis to determine mitotic activity. Gray and black curves represent negative and positive controls, respectively. The negative control was non-CFSE-staining cells, and the positive control was CFSE-staining but immediately fixed cells. (C) 7AAD staining analysis of mock treated (left panel) and KSHV-infected (right panel) primary B cells. Two million primary B cells were mock treated or KSHV infected for 4 weeks and harvested for 7AAD staining. The percentages of dead and necrotic cells are shown. (D) Four-week KSHV-infected primary B cells were harvested and mock treated (left panel) or treated with γ-secretase inhibitor (right panel) for 5 days, and then cells were stained with 7AAD for FACS analysis.
(§4) As was mentioned previously, aberrant Notch signaling is highly associated with oncogenesis. […] Cells stained with CFSE followed by treatment with the γ-secretase inhibitor for 48 h were monitored by FACS.

Experiment [9] deals with DG75 cells. As to the kind of experiment: CFSE staining of mitotic activity by FACS. The experiment is classed as cell-based. Conditions: 20 μM, 48 h, treated vs untreated. As to the method:
as §3, §4

For experiment [10], the system named is BCBL1 cells. As to the kind of experiment: Cell proliferation, trypan blue counting. The experiment is classed as cell-based. Conditions: KSHV-positive cells; RPMI 1640 with 5% BGS; trypan blue counts. As to the method:
as §3, §4

Experiment [11] has as its system DG75 cells. The experiment can be described thus: Cell proliferation, trypan blue counting. The experiment is classed as cell-based. The note with it: KSHV-negative cells; RPMI 1640 with 5% BGS; trypan blue counts. As to the method: as §3, §4
Experiment [12] relates to cyclin D1 in KSHV-positive cells. The experiment can be described thus: Western blot of cyclin D1 levels. The note with it: KSHV-positive cells treated with inhibitor.

Each structure is given as a SMILES string. “Also recorded” adds a separate entry of the source.

As for `CCCCCCCCCCCCCC(=O)O[C@@H]1[C@@H](C)[C@@]2(O)[C@@H](C=C(CO)C[C@]3(O)C(=O)C(C)=C[C@@H]23)[C@@H]2C(C)(C)[C@]12OC(C)=O` [TPA, tetradecanoyl phorbol acetate], the “GFP signals in cells infected with supernatant (FACS)” value in [1] is on record as “GFP signals were detected”. Besides, in experiment [2], the “RTA expression (Western blot)” value is “strongly expressed” and the “production of infectious virions in supernatant” value is recorded as “infectious virions were produced”.

`C[C@H](NC(=O)Cc1cc(F)cc(F)c1)C(=O)N[C@H](C(=O)OC(C)(C)C)c1ccccc1` [γ-secretase inhibitor, N—[N-(3,5-difluorophenacetyl-L-alanyl)]-S-phenylglycine t-butyl ester]: the “cells that had undergone death (7AAD positive)” value in experiment [3] was “about 45.4%”. Moreover, in [4], the “more cells arrested at G1 phase than mock-treated” value was “approximately 30%”. Further, the “changes in G1 phase of the cell cycle” value in experiment [5] is listed as “no significant changes”. Further, in experiment [6], the “ICN levels (Western blot)” value was “decreased”. Also, the “survival time of mice” value in experiment [7] (SCID mice with BCBL1, 30 mg/kg daily, vs saline control) is on record as “significantly prolong; also recorded: significantly increase”. Also, the “progression of the tumor / formation of tumor and ascites” value in experiment [7] (SCID mice, 10 million BCBL1 cells i.p., 30 mg/kg i.p. daily, vs saline, 30 mg/kg) is “greatly slow down; also recorded: greatly delayed”. Also, the “histopathology of BCBL1 tumor cells” value in [7] (tumor tissue of treated mice, vs saline mock treated) is “necrosis and apoptosis; also recorded: a lot of necrotic and apoptotic cells”. The “mitotic activity (CFSE)” value in [8] is given as “dramatically decreased”; in experiment [9] it was “relatively unchanged”. In [10], the “proliferation of BCBL1 cells” value is listed as “dramatically slowed”. The “proliferation of DG75 cells” value in experiment [11] is given as “minimally affected”. For the same compound, the “cyclin D1 levels (Western blot)” value in experiment [12] is reported as “depressed”.
